In article PMC10498667 (Chemical Science, 2023):

Biological target: T1, Aβ40 (Homo sapiens, UniProt P05067)
T1 construct: Ab40 ([…]-; purchased Peptide Institute, Inc. (Osaka, Japan)
Test: ITC binding of 6 with Aβ40
Method: Distinct reactivities of 6 with metal-free Aβ and metal–Aβ were supported by various biophysical approaches. […] In the absence of Aβ, an increase or decrease in the absorption of the peaks at ca. 265, 300, 340, and 410 nm was monitored for 24 h (Fig. S18 ^†), which could be resulted from the oxidation of 6 in the presence of O2.[69] These spectral changes were accelerated upon incubation with Aβ, indicative of its impact on the oxidative modification of 6. Such transformation of 6 was also indicated in the presence of Cu(II) or Zn(II) with and without Aβ. To probe the interaction of 6 with Aβ, their binding properties were analyzed by isothermal titration calorimetry (ITC). For the association between 6 and Aβ, we recorded the heat change upon constant titration of the flavonoid into the solution of Aβ, where the dilution heat was also measured to avoid the heat change induced by its addition into the buffered solution. […] Thus, 6 can bind to Aβ with a micromolar binding affinity. […]
ITC. The solutions of Ab and 6 were subjected to degassing under vacuum for 3 min prior to loading into the instrument. […] […] The initial delay and the reference power were 60 s and 10 µcal/s, respectively. Dilution heat of 6 only was also measured under the same experimental conditions.
The ITC thermogram and binding isotherm were shown after the subtraction of the dilution heat.
The binding isotherm after baseline correction was fitted to the one-set-of-sites binding model using the MicroCal Origin software (version 7.0). […]

T1 sequence (P05067 672-711 limits assumed): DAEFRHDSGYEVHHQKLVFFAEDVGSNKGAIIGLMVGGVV

**Q.** O=c1c(-c2ccc(O)c(O)c2)coc2cc(O)c(O)c(O)c12 [compound 6, 3-(3,4-dihydroxyphenyl)-5,6,7-trihydroxy-4H-chromen-4-one] was tested. Which Kd (one-set-of-sites model, 10 °C, read-out: Binding affinity) did it give?
**A.** ~20.5 µM

**Q.** What about the TΔS (pH 7.4, 10 °C) of the same molecule?
**A.** 5.4 (±0.7) kcal mol^−1

**Q.** What about the ΔG (pH 7.4, 10 °C) of the same molecule?
**A.** −6.0 (±0.5) kcal mol^−1

**Q.** What about the ΔH (pH 7.4, 10 °C) of the same molecule?
**A.** −0.6 (±0.5) kcal mol^−1
